Results published in the supplement of paper PMC8967900.

Tests used:
Experiment in all cases: selective drug sensitivity score (sDSS, relative to normal bone marrow) (sDSS (score)); higher = more potent and effective on the cell line relative to normal bone marrow cells
Conditions in all cases: 72 h
ALL-SIL = tested on: ALL-SIL
CCRF-CEM = tested on: CCRF-CEM
CCRF-HSB2 = tested on: CCRF-HSB2
COG-LL-332h = tested on: COG-LL-332h
COG-LL-394h = tested on: COG-LL-394h
COG-LL-402h = tested on: COG-LL-402h
DND-41 = tested on: DND-41
HAL-01 = tested on: HAL-01
JURKAT = tested on: JURKAT
KASUMI-9 = tested on: KASUMI-9
LC4-1 = tested on: LC4-1
MHH-CALL-2 = tested on: MHH-CALL-2
MOLT-4 = tested on: MOLT-4
NALL-1 = tested on: NALL-1
NALM-16 = tested on: NALM-16
P12-ICHIKAWA = tested on: P12-ICHIKAWA
RCH-ACV = tested on: RCH-ACV
RPMI-8402 = tested on: RPMI-8402
SEM cells = tested on: SEM cells
TMD5 = tested on: TMD5
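Further: ALL cell lines in 384-well plates, five doses spanning 10,000-fold, each plate scaled between vehicle and 100 µmol/L benzalkonium chloride controls, sDSS an adapted area-under-curve metric.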

SMILES	selective drug sensitivity score (ALL-SIL)	selective drug sensitivity score (CCRF-CEM)	selective drug sensitivity score (CCRF-HSB2)	selective drug sensitivity score (COG-LL-332h)	selective drug sensitivity score (COG-LL-394h)	selective drug sensitivity score (COG-LL-402h)	selective drug sensitivity score (DND-41)	selective drug sensitivity score (HAL-01)	selective drug sensitivity score (JURKAT)	selective drug sensitivity score (KASUMI-9)	selective drug sensitivity score (LC4-1)	selective drug sensitivity score (MHH-CALL-2)	selective drug sensitivity score (MOLT-4)	selective drug sensitivity score (NALL-1)	selective drug sensitivity score (NALM-16)	selective drug sensitivity score (P12-ICHIKAWA)	selective drug sensitivity score (RCH-ACV)	selective drug sensitivity score (RPMI-8402)	selective drug sensitivity score (SEM cells)	selective drug sensitivity score (TMD5)
CN1CCC(CNc2ccc3ncc(-c4cccc(OC(F)(F)F)c4)n3n2)CC1 [SGI-1776] (top concentration 10000 nM)	-1.48	0.52	3.12	0.22	0.82	-2.48	-1.18	1.92	-3.28	-1.68	-1.08	1.22	-2.88	-2.18	-1.38	-2.98	0.62	-2.68	6.92	-0.98
O=C(/C=C\n1cnc(-c2cc(C(F)(F)F)cc(C(F)(F)F)c2)n1)NNc1cnccn1 [Selinexor] (top concentration 10000 nM)	9.88	9.38	14.8	9.68	5.78	11.7	14.6	9.08	12.8	7.98	7.78	7.48	13.2	2.98	0.48	10.1	13.7	12.3	5.38	0.38
Cn1cnc2c(F)c(Nc3ccc(Br)cc3Cl)c(C(=O)NOCCO)cc21 [Selumetinib] (top concentration 10000 nM)	-4.1	2	0.8	-2.3	-3	-2.3	0.4	11	-3.5	2.2	0.7	8.5	-3.7	-4.1	-1.3	0.3	-3.7	-4.1	-0.3	3.1
COCC[n+]1c2c(n(Cc3cnccn3)c1C)C(=O)c1ccccc1C2=O [Sepantronium_bromide] (top concentration 10000 nM)	-3.26	8.44	14.6	14.2	-11.7	22.8	-7.46	-12.6	14.2	16.2	22.3	22.8	15.9	16.2	22.2	4.14	17.9	7.64	13.3	20.5
O=C(O)c1ccc2c(c1)nc(Nc1cccc(Cl)c1)c1ccncc12 [Silmitasertib] (top concentration 10000 nM)	6.2	4.1	4.4	4	2.3	0.2	3.6	3.8	3.2	3.3	3.9	6.6	0.6	2.2	-1.4	0.6	0.8	3.3	1.4	-2.2
CO[C@H]1C[C@@H]2CC[C@@H](C)[C@@](O)(O2)C(=O)C(=O)N2CCCC[C@H]2C(=O)O[C@H]([C@H](C)C[C@@H]2CC[C@@H](O)[C@H](OC)C2)CC(=O)[C@H](C)/C=C(\C)[C@@H](O)[C@@H](OC)C(=O)[C@H](C)C[C@H](C)/C=C/C=C/C=C/1C [Sirolimus] (top concentration 100 nM)	-0.86	3.34	3.14	3.04	-3.76	0.04	-0.16	0.44	-1.96	4.74	1.74	0.84	-2.46	-3.66	-2.26	-2.46	11.1	-1.76	1.34	-3.56
COCCNCc1ccc(-c2cc3nccc(Oc4ccc(NC(=O)C5(C(=O)Nc6ccc(F)cc6)CC5)cc4F)c3s2)nc1 [Sitravatinib] (top concentration 2500 nM)	15.9	0.18	9.28	5.98	3.08	1.78	0.98	5.28	0.38	3.58	1.28	6.78	0.78	9.38	2.78	0.08	7.38	2.38	26.2	11
CCN(CC)CCNC(=O)c1c(C)[nH]c(/C=C2\C(=O)Nc3ccc(F)cc32)c1C [Sunitinib] (top concentration 1000 nM)	0.76	-1.44	1.36	-1.44	-0.34	-1.44	-1.44	3.36	-1.44	0.66	-0.84	1.86	-0.94	-1.44	-1.04	-1.34	1.46	-1.24	15.3	3.26
CC(C)Oc1ccc(-c2nn([C@@H](C)c3oc4ccc(F)cc4c(=O)c3-c3cccc(F)c3)c3ncnc(N)c23)cc1F [TGR-1202] (top concentration 2500 nM)	-0.36	-1.16	-2.06	-1.56	-1.46	-1.96	2.74	3.04	-2.56	1.44	-1.76	-0.06	-2.56	1.24	2.24	-2.56	9.14	-2.06	-2.56	-2.56
CN(C(=O)c1ccc(F)cc1C(F)(F)F)C1CCN(c2nnc(-c3ccnn3C)c3ccccc23)CC1 [Taladegib] (top concentration 10000 nM)	0.08	-0.82	-0.92	1.08	2.08	-1.12	-1.12	2.78	2.78	-1.12	4.58	3.18	-0.12	-1.12	0.88	-0.22	-0.52	2.38	-1.12	-1.02
COc1cc(Nc2ncc(F)c(Nc3ccc4c(n3)NC(=O)C(C)(C)O4)n2)cc(OC)c1OC [Tamatinib] (top concentration 10000 nM)	-5.42	-5.42	4.78	-0.22	-5.42	-1.22	-1.82	-2.92	-5.42	2.68	1.28	-4.92	-5.42	-3.82	-1.42	-5.02	14	0.68	12	-5.42
Nc1cc(F)ccc1NC(=O)c1ccc(CNC(=O)/C=C/c2cccnc2)cc1 [Tucidinostat] (top concentration 10000 nM)	10.4	2.44	2.14	-2.76	-3.86	5.34	1.04	-2.06	1.34	7.24	3.94	9.14	-0.76	-2.76	-0.36	4.04	11.1	2.94	10.3	4.14
CN[C@@H]1C[C@H]2O[C@@](C)([C@@H]1OC)n1c3ccccc3c3c4c(c5c6ccccc6n2c5c31)C(=O)N[C@H]4O [UCN-01] (top concentration 10000 nM)	3.14	6.04	9.34	1.44	-1.46	8.94	7.44	2.94	0.34	9.34	1.54	7.94	3.74	0.94	0.74	5.94	18	5.24	7.74	-0.36
CC(C)Nc1cc(-c2c[nH]c(C(=O)N[C@H](CO)c3cccc(Cl)c3)c2)c(Cl)cn1 [Ulixertinib] (top concentration 10000 nM)	3.02	2.82	1.32	1.92	-0.18	-0.38	4.72	1.92	-1.08	1.82	0.32	2.72	1.72	3.92	3.22	1.22	2.82	-1.38	1.62	2.12
Cn1ncc(Cl)c1-c1cc(C(=O)N[C@H](CN)Cc2ccc(F)c(F)c2)oc1Cl [Uprosertib] (top concentration 10000 nM)	1.5	10.4	0.7	5.7	-0.6	1.7	-1.3	3.9	5.9	0.7	-1.2	2.1	9.3	-1.4	5.4	1.9	8.3	3.4	4.5	1.2
C=CC(=O)N1CC/C(=C\c2ccc(F)c([N+](=O)[O-])c2)C(=O)/C(=C/c2ccc(F)c([N+](=O)[O-])c2)C1 [VLX1570] (top concentration 10000 nM)	-3.62	1.58	-2.12	-0.52	-1.92	5.28	1.18	-2.52	-8.52	0.88	0.68	-3.32	-5.62	-4.52	-3.72	-4.92	1.58	-6.52	3.38	-2.62
C[C@@H]1COC(Nc2ccc3ncnc(Nc4ccc(OCc5nccs5)c(Cl)c4)c3c2)=N1 [Varlitinib] (top concentration 10000 nM)	2.92	-0.18	0.12	2.12	-0.18	-0.18	-0.18	-0.18	-0.18	4.72	20.2	5.02	-0.18	-0.18	0.92	3.02	5.92	4.92	2.92	3.02
CNC(=O)c1cccc(-c2ccc3c(N4CCOC[C@@H]4C)nc(N4CCOC[C@@H]4C)nc3n2)c1 [Vistusertib] (top concentration 10000 nM)	8.52	8.22	5.42	4.62	-1.28	9.12	9.02	5.12	2.22	11.8	5.12	9.52	3.12	-3.58	2.22	3.72	24.5	5.52	4.82	3.02
